Laboratory results reported in patent publication US11723929B2, “Methods of improving cell-based therapy” (THE REGENTS OF THE UNIVERSITY OF CALIFORNIA, priority 2017, dated 2023).

How the values were obtained:
Exp. logP (Table 3) = type: physicochemical
[1] = PTZ Induced Seizure Model; Example 52 and FIG. 7 of WO 2015/148954; cited from earlier work
sEH [2] = target: T1, sEH (Homo sapiens (Human), UniProt P34913); test: Testing as inhibitor of sEH; type: biochemical
Source text: Derivatives of urea are transition state mimetics that form a group of sEH inhibitors. […] Any particular urea derivative or other compound can be easily tested for its ability to inhibit sEH by standard assays, such as those discussed herein. The production and testing of urea and carbamate derivatives as sEH inhibitors is set forth in detail in, for example, Morisseau et al., Proc Natl Acad Sci (USA) 96:8849-8854 (1999).
(§1) Both the 1- and the 2-adamantyl ureas have been tested and have about the same high activity as an inhibitor of sEH.
One category of these inhibitors comprises inhibitors that mimic the substrate for the enzyme. The lipid alkoxides (e.g., the 9-methoxide of stearic acid) are an exemplar of this group of inhibitors.

Metabolic stability = type: in vitro ADME
Source text: as §1

[3] = system: murine myocardial infarction (MI) model; test: In vivo bioluminescence imaging of transplanted hiPSC-CMs in the post MI model; conditions: NSG mice post MI with transplanted hiPSC-CMs, with or without TPPU 15 mg/L in drinking water; BLI at 3 and 4 weeks
[4] = system: murine myocardial infarction (MI) model; test: Flow cytometric quantification of GFP+ hiPSC-CMs in the post MI model; conditions: NSG mice post MI with transplanted hiPSC-CMs, with or without TPPU; after 4 weeks
[5] = system: murine myocardial infarction (MI) model; test: Echocardiography, left ventricular fractional shortening after MI; type: in vivo, mouse
Procedure: The animals were followed for a period of three weeks at which time repeat echocardiograms were performed.
An increase in hiPSC-CMs engraftment translated into a significant improvement in cardiac function.

PDE4 = PDE4 inhibition by cAMP increase in live HEK cells transfected with a PKA biosensor; type: cell-based, human; conditions: relative to Rolipram at 1 μM
[6] = cited from earlier work
sEH [7] = target: T1, sEH; test: Inhibitory activity against sEH (Table 4); conditions: read-out: sEH
COX-1 = test: Inhibitory activity against COX-1 (Table 4); type: biochemical; set-up: dose or concentration left out as unconfirmed

IC50 (sEH [7])	Structure (SMILES)	COX-1 (% inhibition) (COX-1)	also measured
2.6 ± 0.3 nM	CS(=O)(=O)c1ccc(-n2nc(CNC(=O)NC3CCCCCC3)cc2-c2ccccc2)cc1 [compound 2321, 1-Cycloheptyl-3-[1-(4-methanesulfonyl-phenyl)-5-phenyl-1H-pyrazol-3-ylmethyl]-urea]	3.4 % inhibition	
47 ± 4 nM	CS(=O)(=O)c1ccc(-n2nc(CNC(=O)Nc3ccccc3)cc2-c2ccccc2)cc1 [compound 2322, 1-[1-(4-Methanesulfonyl-phenyl)-5-phenyl-1H-pyrazol-3-ylmethyl]-3-phenyl-urea]		
6 ± 0.5 nM	CS(=O)(=O)c1ccc(-n2nc(CNC(=O)Nc3ccc(OC(F)(F)F)cc3)cc2-c2ccccc2)cc1 [compound 2323, 1-[1-(4-Methanesulfonyl-phenyl)-5-phenyl-1H-pyrazol-3-ylmethyl]-3-(4-trifluoromethoxy-phenyl)-urea]	10.4 % inhibition	
110 ± 5 nM	CS(=O)(=O)c1ccc(-n2nc(CNC(=O)Nc3ccc(C(F)(F)F)cc3)cc2-c2ccccc2)cc1 [compound 2324, 1-[1-(4-Methanesulfonyl-phenyl)-5-phenyl-1H-pyrazol-3-ylmethyl]-3-(4-trifluoromethyl-phenyl)-urea]	10.7 % inhibition	
1550 ± 70 nM	CC(C)c1cccc(C(C)C)c1NC(=O)NCCCc1cc(-c2ccccc2)n(-c2ccc(S(N)(=O)=O)cc2)n1 [compound 2325, 4-(3-{3-[3-(2,6-Diisopropyl-phenyl)-ureido]-propyl}-5-phenyl-pyrazol-1-yl)-benzenesulfonamide]	6.2 % inhibition	
0.5 ± 0.1 nM	NS(=O)(=O)c1ccc(-n2nc(CCCNC(=O)NC34CC5CC(CC(C5)C3)C4)cc2-c2ccccc2)cc1 [compound 2326, 4-{3-[3-(3-Adamantan-1-yl-ureido)-propyl]-5-phenyl-pyrazol-1-yl}-benzenesulfonamide]	6.7 % inhibition	
0.8 ± 0.1 nM	NS(=O)(=O)c1ccc(-n2nc(CCCNC(=O)Nc3ccc(Cl)cc3)cc2-c2ccccc2)cc1 [compound 2327, 4-(3-{3-[3-(4-Chloro-phenyl)-ureido]-propyl}-5-phenyl-pyrazol-1-yl)-benzenesulfonamide]	15.2 % inhibition	
0.9 ± 0.1 nM	NS(=O)(=O)c1ccc(-n2nc(CCCNC(=O)Nc3ccc(C(F)(F)F)cc3)cc2-c2ccccc2)cc1 [compound 2328, 4-(5-Phenyl-3-{3-[3-(4-trifluoromethyl-phenyl)-ureido]-propyl}-pyrazol-1-yl)-benzenesulfonamide]	22.7 % inhibition	
0.5 ± 0.1 nM	NS(=O)(=O)c1ccc(-n2nc(CCCNC(=O)Nc3ccc(OC(F)(F)F)cc3)cc2-c2ccccc2)cc1 [compound 2329, 4-(5-Phenyl-3-{3-[3-(4-trifluoromethoxy-phenyl)-ureido]-propyl}-pyrazol-1-yl)-benzenesulfonamide]	13.8 % inhibition	

The remaining lines, values behind:

Structure (SMILES)	IC50 (sEH [7])	COX-1 (% inhibition) (COX-1)	also measured
O=C(Nc1ccc(C(F)(F)F)cc1)NC1CCN(C(=O)C2(C(F)(F)F)CC2)CC1			logP (Exp. logP (Table 3)): 4.63
O=C(Nc1ccc(OC(F)(F)F)c(F)c1)NC1CCN(C(=O)C2CCOCC2)CC1 [1-(3-fluoro-4-(trifluoromethoxy)phenyl)-3-(1-(tetrahydro-2H-pyran-4-carbo-nyl)piperidin-4-yl)urea]			crossing of the blood-brain barrier [1]: cross the blood-brain barrier
CCCCCCCCCCCCNC(=O)NC12CC3CC(CC(C3)C1)C2 [ADU, N-Adamantyl-N′-dodecyl urea]			activity as inhibitor of sEH (sEH [2]): particularly high activity; metabolic stability (Metabolic stability): metabolically stable
CCC(=O)N1CCC(NC(=O)Nc2ccc(OC(F)(F)F)cc2)CC1 [TPPU]			BLI signal of transplanted GFP+ hiPSC-CMs [3]: 7.4×10^6±1.7×10^6 photons/s/cm^2/sr; number of GFP+ hiPSC-CMs by flow cytometry [4]: 9.9±0.5%; improvement of FS with both sEHI and cells ([5]; MI+hiPSC-CM+TPPU, highest compared to other treatment groups): 40%; left ventricular fractional shortening (FS), MI+hiPSC-CM+TPPU group ([5]; after three weeks of TPPU treatment (before treatment 44±6%)): 61±2%; fractional shortening (FS), MI+TPPU group ([5]; post treatment): 55±0.7%; fractional shortening (FS), MI+TPPU+Vehicle (PBS injection) group ([5]; post treatment): 51±2%; cAMP increase (% of Rolipram) (PDE4): 40 ± 10 % of Rolipram; half-life ([6]; compared with many previous compounds (ref. 50)): relatively longer half-life; area under the curve ([6]; in vivo): high area under the curve values
CS(=O)(=O)c1ccc(-n2nc(CNC(=O)NC34CC5CC(CC(C5)C3)C4)cc2-c2ccccc2)cc1 [compound 1860, 1-Adamantan-1-yl-3-[1-(4-methanesulfonyl-phenyl)-5-phenyl-1H-pyrazol-3-ylmethyl]-urea]	25 ± 1 nM	12.7 % inhibition	
CS(=O)(=O)c1ccc(-n2nc(CNC(=O)Nc3cccc(C(F)(F)F)c3)cc2-c2ccccc2)cc1 [compound 1861, 1-[1-(4-Methanesulfonyl-phenyl)-5-phenyl-1H-pyrazol-3-ylmethyl]-3-(3-trifluoromethyl-phenyl)-urea]	72 ± 8 nM	7.8 % inhibition	
CS(=O)(=O)c1ccc(-n2nc(CCCNC(=O)Nc3cccc(C(F)(F)F)c3)cc2-c2ccccc2)cc1 [compound 1862, 1-{3-[1-(4-Methanesulfonyl-phenyl)-5-phenyl-1H-pyrazol-3-yl]-propyl}-3-(3-trifluoromethyl-phenyl)-urea]	3.4 ± 0.2 nM	6.4 % inhibition	
CC(C)(C)c1cc(CNC(=O)Nc2cccc(C(F)(F)F)c2)nn1-c1ccc(S(C)(=O)=O)cc1 [compound 2106, 1-[5-tert-Butyl-1-(4-methanesulfonyl-phenyl)-1H-pyrazol-3-ylmethyl]-3-(3-trifluoromethyl-phenyl)-urea]	32 ± 3 nM	2.4 % inhibition	
NS(=O)(=O)c1ccc(-n2nc(CNC(=O)Nc3cccc(C(F)(F)F)c3)cc2-c2ccccc2)cc1 [compound 2107, 4-{5-Phenyl-3-[3-(3-trifluoromethyl-phenyl)-ureidomethyl]-pyrazol-1-yl}-benzenesulfonamide]	84 ± 6 nM	16.9 % inhibition	
NS(=O)(=O)c1ccc(-n2nc(NC(=O)Nc3cccc(C(F)(F)F)c3)cc2-c2ccccc2)cc1 [compound 2121, 4-{5-Phenyl-3-[3-(3-trifluoromethyl-phenyl)-ureido]-pyrazol-1-yl}-benzenesulfonamide]	88 ± 5 nM	33.9 % inhibition	
Cc1ccc(-c2cc(CCCNC(=O)Nc3cccc(C(F)(F)F)c3)nn2-c2ccc(S(N)(=O)=O)cc2)cc1 [compound 2152, 4-(5-p-Tolyl-3-{3-[3-(3-trifluoromethyl-phenyl)-ureido]-propyl}-pyrazol-1-yl)-benzenesulfonamide]	10 ± 1 nM	12.1 % inhibition	
NS(=O)(=O)c1ccc(-n2nc(CCCNC(=O)Nc3ccccc3)cc2-c2ccccc2)cc1 [compound 2245, 4-{5-Phenyl-3-[3-(3-phenyl-ureido)-propyl]-pyrazol-1-yl}-benzenesulfonamide]	0.8 ± 0.1 nM	15.8 % inhibition	
NS(=O)(=O)c1ccc(-n2nc(CCCNC(=O)Nc3cccc(C(F)(F)F)c3)cc2-c2ccccc2)cc1 [compound 2246, 4-(5-Phenyl-3-{3-[3-(3-trifluoromethyl-phenyl)-ureido]-propyl}-pyrazol-1-yl)-benzenesulfonamide]	4.1 ± 0.4 nM	27.2 % inhibition	
NS(=O)(=O)c1ccc(-n2nc(CCCNC(=O)NC3CCCCCC3)cc2-c2ccccc2)cc1 [compound 2247, 4-{3-[3-(3-Cycloheptyl-ureido)-propyl]-5-phenyl-pyrazol-1-yl}-benzenesulfonamide]	0.5 ± 0.1 nM	10.2 % inhibition	
NS(=O)(=O)c1ccc(-n2nc(CCNC(=O)Nc3cccc(C(F)(F)F)c3)cc2-c2ccccc2)cc1 [compound 2313, 4-(5-Phenyl-3-{2-[3-(3-trifluoromethyl-phenyl)-ureido]-ethyl}-pyrazol-1-yl)-benzenesulfonamide]	26 ± 3 nM	22.0 % inhibition	
